Results taken from EP3025717A1, “SYNERGISTIC PHARMACEUTICAL COMPOSITION OF TWO ANALGESICS HAVING A DISTINCT PHARMACOKINETIC PROFILE” (FARMACÉUTICOS RAYERE, S.A., priority 2013, dated 2014).

Tests used:
[1] = cited from earlier work
acute inflammatory pain = assay: Formalin model of acute inflammatory pain in mice, isobolographic analysis; type: in vivo, ICR male mice; details: Mus musculus, ip; individual drug, intraperitoneal, 20 minutes before formalin, phase 2 (15 to 45 minutes); read-out: DE30 (dose causing 30% anti-nociceptive effect)
Protocol: The duration of the experiment was always as short as possible, considering that the number of animals used was the minimum necessary. […] Transparent cylinders of 20 cm diameter X 40 cm high were used, with mirrors. At the start of the experiment, the mice were placed in cylinders for a period of 60 minutes to settle. After this time, the mice were removed for the administration of 20 μL formalin (3% formaldehyde solution). Immediately after formalin administration, the mouse was returned to the cylinder for observing the characteristic behaviour, which consists in counting the number of licks of the injected paw during 5-minute periods to a total time of 45 minutes. […] Groups of animals were used with an average n ≥ 6. Physiological saline solution (0.9) was administered intraperitoneally as a control of each experimental set. […] The percentage of anti-nociception was plotted according to the dose of both analgesics individually or in combination. The data of the dose-response curve were analysed by a variance analysis (ANOVA), followed by a Tukey test. […] The doses used for this assay correspond to those reported as effective in humans, considering that an average human weighs 60 kg.

COX-1 and COX-2 = details: in vitro; cited from earlier work

Cc1cnc(NC(=O)C2=C(O)c3ccccc3S(=O)(=O)N2C)s1 [MXC, 4-hydroxy-2-methyl-N-(5-methyl-2-thiazolyl)-2H-1,2-benzothiazine-3-carboxamide-1,1-dioxide]
percentage of native drug in the faeces ([1]; faeces): 1.6% | administered dose excreted in the urine ([1]; mostly as metabolites): 43% | absolute bio-availability ([1]; oral administration): 90% | Tmax ([1]; plasma): 5 to 6 h | increase of the maximum plasma concentrations by food ([1]; presence of food): 22% | plasma concentrations observed in synovial fluid ([1]; synovial fluid): 40-50% | percentage of native drug in the urine ([1]; urine): 0.2% | ED30 (acute inflammatory pain): 0.12 ± 0.004 mg/kg

CC(=O)Oc1ccccc1C(=O)O [aspirin, acetylsalicylic acid]
ratio Cl50COX-2/Cl50COX-1 (inhibits more the constitutive COX-1 than the COX-2) (COX-1 and COX-2): 166 times
